Test results: patent publication US20250041302A1, “PROLYL HYDROXYLASE DOMAIN INHIBITOR FOR TREATING HEMORRHAGIC OR BURN SHOCK” (THE GOVERNMENT OF THE UNITED STATES, AS REPRESENTED BY THE …, priority 2022, published 2025)

Test system: polytrauma/hemorrhage rodent model
Experiment: Intravenous PHDi at 20 min after polytrauma/hemorrhage (FIG. 6)
Type: in vivo, rat
Experimental: FIG. 6. The effect of intravenous administration of PHDi after polytrauma/hemorrhage. PHDi (MK-8617, 1 mg/kg, n=8) or vehicle (n=7) was administered intravenously at 20 min after trauma. (FIG. 6A) Mean arterial pressure (MAP); (FIG. 6B) Lactate (hyperlactatemia); (FIG. 6C) Prothrombin time (PT, acute traumatic coagulopathy); and (FIG. 6D) Fibrinogen level.
PHDi (MK-8617, 1 mg/ml in 500 μL of 5% DMSO, 10% PEG 400, and 85% normal saline, average dose 1.26±0.05 mg/kg, n=8), or vehicle (n=7) was administered intravenously at 20 min after trauma. The surviving animals were euthanized 4 hours after trauma.

SMILES: COc1ccc(C(NC(=O)c2cnc(-c3cccnn3)nc2O)c2ccc(OC)cc2)cc1 [MK-8617, N-[Bis(4-methoxyphenyl)methyl]-4-hydroxy-2-(pyridazin-3-yl)pyrimidine-5-carboxamide]
- mean arterial pressure (MAP) compared with vehicle (after treatment, MK-8617 i.v. 1.26±0.05 mg/kg at 20 min after trauma, n=8): significantly higher
- reduction in the elevation of lactate as compared with vehicle (at 60 min, i.v. at 20 min after trauma): about 30%
- prothrombin time (PT, acute traumatic coagulopathy) (i.v. at 20 min after trauma): reduced the prolongation of prothrombin time
